Measured values reported in patent publication US8673347B2 (Creabilis Therapeutics S.p.A., priority 2005, dated 2014).
Read-outs that look alike come from different tables or passages of the source.

Tests used:
JAK3 = JAK3 (Homo sapiens, UniProt P52333); experiment: Kinase inhibition profile; format: biochemical; conditions: 200 nM; read-out: inhibitory activity
Method: (§1) The preparation of CT327 and the reference compounds was conducted following a similar procedure. CT327 also was tested at a concentration of 200 nM.
(§2) The inhibitory activity of CT327 against the tested tyrosine kinase and serine/threonine kinases is shown in the Table a and b, respectively, reported in FIG. 9b.

TrkB = TrkB (Homo sapiens, UniProt Q16620); experiment: Kinase inhibition profile; format: biochemical; conditions: 200 nM; read-out: inhibitory activity
Method: as §1, §2

AurA = AurA (Homo sapiens, UniProt O14965); experiment: Kinase inhibition profile; format: biochemical; conditions: 200 nM; read-out: inhibitory activity
Sequence of AurA (O14965 whole entry, species assumed): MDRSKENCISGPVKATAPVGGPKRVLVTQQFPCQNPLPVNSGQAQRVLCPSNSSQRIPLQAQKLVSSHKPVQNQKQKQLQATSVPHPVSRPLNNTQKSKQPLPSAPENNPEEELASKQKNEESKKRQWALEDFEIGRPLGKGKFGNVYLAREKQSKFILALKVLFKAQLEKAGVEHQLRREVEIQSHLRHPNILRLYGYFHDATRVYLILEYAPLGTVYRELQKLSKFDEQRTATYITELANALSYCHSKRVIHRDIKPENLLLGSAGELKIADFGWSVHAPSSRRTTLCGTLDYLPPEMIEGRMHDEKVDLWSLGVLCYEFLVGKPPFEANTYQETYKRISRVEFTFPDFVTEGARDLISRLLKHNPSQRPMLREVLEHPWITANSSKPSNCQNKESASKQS
Method: as §1, §2

FGR = FGR (Homo sapiens, UniProt P09769); experiment: Kinase inhibition profile; format: biochemical; conditions: 200 nM; read-out: inhibitory activity
Method: as §1, §2

CHK2 = CHK2 (Homo sapiens, UniProt O96017); experiment: Kinase inhibition profile; format: biochemical; conditions: 200 nM; read-out: inhibitory activity
Method: as §1, §2

TrkC = TrkC (Homo sapiens, UniProt Q16288); experiment: Kinase inhibition profile; format: biochemical; conditions: 200 nM; read-out: inhibitory activity
Method: as §1, §2

BLK = BLK (Homo sapiens, UniProt P51451); experiment: Kinase inhibition profile; format: biochemical; conditions: 200 nM; read-out: inhibitory activity
Sequence of BLK (P51451 whole entry, species assumed): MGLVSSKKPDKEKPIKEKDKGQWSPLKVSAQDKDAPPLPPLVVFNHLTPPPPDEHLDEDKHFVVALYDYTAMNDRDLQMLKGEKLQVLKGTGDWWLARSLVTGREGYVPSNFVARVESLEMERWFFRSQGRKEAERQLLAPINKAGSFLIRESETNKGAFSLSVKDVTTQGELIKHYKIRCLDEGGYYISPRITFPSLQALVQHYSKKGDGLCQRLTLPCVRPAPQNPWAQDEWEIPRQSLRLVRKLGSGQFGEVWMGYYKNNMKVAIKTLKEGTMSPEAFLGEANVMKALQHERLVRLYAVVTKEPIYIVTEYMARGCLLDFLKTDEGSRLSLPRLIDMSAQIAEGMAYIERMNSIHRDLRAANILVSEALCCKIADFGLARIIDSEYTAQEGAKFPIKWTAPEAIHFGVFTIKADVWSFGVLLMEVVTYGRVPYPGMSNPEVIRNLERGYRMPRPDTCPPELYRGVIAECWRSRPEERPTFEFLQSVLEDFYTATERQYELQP
Method: as §1, §2

FLT3 = FLT3 (Homo sapiens, UniProt P36888); experiment: Kinase inhibition profile; format: biochemical; conditions: 200 nM; read-out: inhibitory activity
Method: as §1, §2

RET = RET (Homo sapiens, UniProt P07949); experiment: Kinase inhibition profile; format: biochemical; conditions: 200 nM; read-out: inhibitory activity
Method: as §1, §2

CHK1 = CHK1 (Homo sapiens, UniProt O14757); experiment: Kinase inhibition profile; format: biochemical; conditions: 200 nM; read-out: inhibitory activity
Method: as §1, §2

CaMK2a = CaMK2a (Homo sapiens, UniProt Q9UQM7); experiment: Kinase inhibition profile; format: biochemical; conditions: 200 nM; read-out: inhibitory activity
Method: as §1, §2

KIT = KIT (Homo sapiens, UniProt P10721); experiment: Kinase inhibition profile; format: biochemical; conditions: 200 nM; read-out: inhibitory activity
Method: as §1, §2

JAK1 = JAK1 (Homo sapiens, UniProt P23458); experiment: Kinase inhibition profile; format: biochemical; conditions: 200 nM; read-out: inhibitory activity
Method: as §1, §2

TYK2 = TYK2 (Homo sapiens, UniProt P29597); experiment: Kinase inhibition profile; format: biochemical; conditions: 200 nM; read-out: inhibitory activity
Method: as §1, §2

JNK1 = JNK1 (Homo sapiens, UniProt P45983); experiment: Kinase inhibition profile; format: biochemical; conditions: 200 nM; read-out: inhibitory activity
Method: as §1, §2

PDGFRα = PDGFRα (Homo sapiens, UniProt P16234); experiment: Kinase inhibition profile; format: biochemical; conditions: 200 nM; read-out: inhibitory activity
Method: as §1, §2

PDGFRβ = PDGFRβ (Homo sapiens, UniProt P09619); experiment: Kinase inhibition profile; format: biochemical; conditions: 200 nM; read-out: inhibitory activity
Method: as §1, §2

TNK1 = TNK1 (Homo sapiens, UniProt Q13470); experiment: Kinase inhibition profile; format: biochemical; conditions: 200 nM; read-out: inhibitory activity
Method: as §1, §2

JAK2 = JAK2 (Homo sapiens, UniProt O60674); experiment: Kinase inhibition profile; format: biochemical; conditions: 200 nM; read-out: inhibitory activity
Sequence of JAK2 (O60674 whole entry, species assumed): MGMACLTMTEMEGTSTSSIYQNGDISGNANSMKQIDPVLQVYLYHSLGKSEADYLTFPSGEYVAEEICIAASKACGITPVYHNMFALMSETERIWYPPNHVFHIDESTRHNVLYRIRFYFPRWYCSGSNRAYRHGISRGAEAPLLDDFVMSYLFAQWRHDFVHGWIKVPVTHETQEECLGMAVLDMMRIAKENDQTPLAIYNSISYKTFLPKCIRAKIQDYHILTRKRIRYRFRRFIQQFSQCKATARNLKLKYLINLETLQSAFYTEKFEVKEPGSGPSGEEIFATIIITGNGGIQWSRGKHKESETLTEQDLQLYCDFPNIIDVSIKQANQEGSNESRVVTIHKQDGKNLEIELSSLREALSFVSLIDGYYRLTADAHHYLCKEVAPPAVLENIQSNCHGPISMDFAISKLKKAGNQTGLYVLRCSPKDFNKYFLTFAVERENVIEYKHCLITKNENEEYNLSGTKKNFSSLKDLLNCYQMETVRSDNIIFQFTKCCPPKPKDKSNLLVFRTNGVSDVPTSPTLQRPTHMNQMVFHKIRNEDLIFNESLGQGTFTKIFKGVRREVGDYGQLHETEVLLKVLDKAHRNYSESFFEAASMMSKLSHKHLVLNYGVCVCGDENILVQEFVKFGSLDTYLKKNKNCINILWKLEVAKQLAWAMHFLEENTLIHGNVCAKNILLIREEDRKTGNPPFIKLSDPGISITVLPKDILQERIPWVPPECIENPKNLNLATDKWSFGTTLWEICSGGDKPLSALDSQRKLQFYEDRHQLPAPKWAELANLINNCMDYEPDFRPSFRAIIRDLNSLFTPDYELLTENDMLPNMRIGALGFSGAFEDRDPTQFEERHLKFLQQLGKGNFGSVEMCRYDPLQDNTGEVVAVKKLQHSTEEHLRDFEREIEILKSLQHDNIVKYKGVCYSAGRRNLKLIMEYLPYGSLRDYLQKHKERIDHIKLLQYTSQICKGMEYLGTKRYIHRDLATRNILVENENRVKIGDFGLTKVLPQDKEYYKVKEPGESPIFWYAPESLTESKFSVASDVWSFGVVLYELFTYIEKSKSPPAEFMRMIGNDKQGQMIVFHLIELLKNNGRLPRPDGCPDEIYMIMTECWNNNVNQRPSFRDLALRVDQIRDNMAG
Method: as §1, §2

MER = MER (Homo sapiens, UniProt Q12866); experiment: Kinase inhibition profile; format: biochemical; conditions: 200 nM; read-out: inhibitory activity
Sequence of MER (Q12866 21-999): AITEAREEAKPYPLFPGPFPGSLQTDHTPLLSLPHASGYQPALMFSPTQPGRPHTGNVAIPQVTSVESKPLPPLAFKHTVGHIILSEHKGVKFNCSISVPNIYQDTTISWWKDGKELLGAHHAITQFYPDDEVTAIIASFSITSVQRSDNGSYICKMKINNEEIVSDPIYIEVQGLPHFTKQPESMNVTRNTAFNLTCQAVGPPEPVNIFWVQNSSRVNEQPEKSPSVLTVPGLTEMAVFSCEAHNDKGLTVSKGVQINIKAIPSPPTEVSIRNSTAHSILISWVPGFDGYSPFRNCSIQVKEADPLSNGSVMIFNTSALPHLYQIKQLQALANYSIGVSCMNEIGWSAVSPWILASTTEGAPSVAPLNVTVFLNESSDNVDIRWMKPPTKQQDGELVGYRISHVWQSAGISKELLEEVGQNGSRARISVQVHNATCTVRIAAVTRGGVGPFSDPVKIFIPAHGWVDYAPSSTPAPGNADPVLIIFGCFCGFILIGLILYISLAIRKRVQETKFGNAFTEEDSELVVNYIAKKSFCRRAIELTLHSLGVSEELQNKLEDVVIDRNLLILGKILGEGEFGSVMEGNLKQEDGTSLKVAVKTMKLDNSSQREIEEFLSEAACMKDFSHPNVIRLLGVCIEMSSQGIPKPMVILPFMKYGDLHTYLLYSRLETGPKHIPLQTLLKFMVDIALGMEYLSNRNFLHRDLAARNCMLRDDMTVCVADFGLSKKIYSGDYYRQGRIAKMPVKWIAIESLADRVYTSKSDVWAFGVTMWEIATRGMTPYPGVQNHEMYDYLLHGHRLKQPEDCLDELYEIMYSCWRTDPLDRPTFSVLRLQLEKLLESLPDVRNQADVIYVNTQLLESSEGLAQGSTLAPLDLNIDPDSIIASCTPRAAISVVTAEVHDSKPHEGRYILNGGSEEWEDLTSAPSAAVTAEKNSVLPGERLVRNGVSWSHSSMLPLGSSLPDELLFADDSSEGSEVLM
Method: as §1, §2

MET = MET (Homo sapiens, UniProt P08581); experiment: Kinase inhibition profile; format: biochemical; conditions: 200 nM; read-out: inhibitory activity
Sequence of MET (P08581 25-1390): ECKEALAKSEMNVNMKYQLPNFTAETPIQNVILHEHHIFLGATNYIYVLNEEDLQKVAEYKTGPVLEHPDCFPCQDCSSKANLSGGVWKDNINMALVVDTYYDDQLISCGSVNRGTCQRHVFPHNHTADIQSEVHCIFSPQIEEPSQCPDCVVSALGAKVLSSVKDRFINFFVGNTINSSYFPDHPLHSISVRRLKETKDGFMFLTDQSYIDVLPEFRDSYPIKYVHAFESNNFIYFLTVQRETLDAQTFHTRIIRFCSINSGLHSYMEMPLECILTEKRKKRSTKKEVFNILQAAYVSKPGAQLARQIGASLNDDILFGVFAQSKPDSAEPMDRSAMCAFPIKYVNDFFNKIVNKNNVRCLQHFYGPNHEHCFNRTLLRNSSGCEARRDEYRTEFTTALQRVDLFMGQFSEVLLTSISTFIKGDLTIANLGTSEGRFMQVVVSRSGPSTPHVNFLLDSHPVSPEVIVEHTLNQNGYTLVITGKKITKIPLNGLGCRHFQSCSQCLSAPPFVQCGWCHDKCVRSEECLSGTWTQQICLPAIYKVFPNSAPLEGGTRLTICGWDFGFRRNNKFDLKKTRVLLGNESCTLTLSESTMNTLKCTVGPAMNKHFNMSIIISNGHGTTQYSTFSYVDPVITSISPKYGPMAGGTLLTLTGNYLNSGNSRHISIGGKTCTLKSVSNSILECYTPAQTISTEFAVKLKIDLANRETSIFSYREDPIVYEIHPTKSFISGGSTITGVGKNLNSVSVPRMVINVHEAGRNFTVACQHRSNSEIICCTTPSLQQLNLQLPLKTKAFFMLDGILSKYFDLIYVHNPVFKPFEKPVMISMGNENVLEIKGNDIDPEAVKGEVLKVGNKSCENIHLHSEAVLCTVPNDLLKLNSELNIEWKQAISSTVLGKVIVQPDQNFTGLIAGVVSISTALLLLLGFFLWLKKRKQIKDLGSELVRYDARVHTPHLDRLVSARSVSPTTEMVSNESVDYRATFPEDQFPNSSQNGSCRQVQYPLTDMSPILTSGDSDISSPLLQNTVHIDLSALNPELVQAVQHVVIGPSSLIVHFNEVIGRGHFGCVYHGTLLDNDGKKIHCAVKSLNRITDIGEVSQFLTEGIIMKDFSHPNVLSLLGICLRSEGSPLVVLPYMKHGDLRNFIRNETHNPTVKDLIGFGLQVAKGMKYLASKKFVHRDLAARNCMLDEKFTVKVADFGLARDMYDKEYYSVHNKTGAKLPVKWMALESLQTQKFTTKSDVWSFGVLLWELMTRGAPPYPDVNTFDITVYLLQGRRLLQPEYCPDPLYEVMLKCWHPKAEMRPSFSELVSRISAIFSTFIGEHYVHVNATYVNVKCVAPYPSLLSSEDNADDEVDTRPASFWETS
Method: as §1, §2

JNK2 = JNK2 (Homo sapiens, UniProt P45984); experiment: Kinase inhibition profile; format: biochemical; conditions: 200 nM; read-out: inhibitory activity
Sequence of JNK2 (P45984 whole entry, species assumed): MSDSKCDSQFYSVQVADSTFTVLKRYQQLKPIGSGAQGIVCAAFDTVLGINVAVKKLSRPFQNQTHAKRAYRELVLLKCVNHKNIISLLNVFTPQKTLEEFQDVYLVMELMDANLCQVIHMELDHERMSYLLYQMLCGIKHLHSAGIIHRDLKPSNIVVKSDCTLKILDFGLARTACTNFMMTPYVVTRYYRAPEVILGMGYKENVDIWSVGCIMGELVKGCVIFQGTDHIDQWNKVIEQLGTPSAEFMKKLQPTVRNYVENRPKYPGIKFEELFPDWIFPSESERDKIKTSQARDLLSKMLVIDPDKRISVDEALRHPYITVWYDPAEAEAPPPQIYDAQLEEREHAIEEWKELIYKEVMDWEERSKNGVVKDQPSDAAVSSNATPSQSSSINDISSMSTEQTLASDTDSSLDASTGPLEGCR
Method: as §1, §2

[1] = PK study in mice, repeated dermal administration; format: in vivo; conditions: repeated dermal QD for 5 days, 1.03 mg/kg (about 2 μmol/kg), t = 3 h after last administration
Method: (§3) At each sampling time, approximately 0.4 mL blood samples were collected from the ventral aorta of each animal using an insulin syringe, under deep ether anesthesia, and transferred into polyethylene Eppendorf tubes containing 50 μL of 5% EDTA water solution to prevent blood clotting. Blood samples were kept in ice until centrifugation at 1400 g for 5 min. in a refrigerated centrifuge (2-4° C.). From each tube plasma samples were then recovered, put in new Eppendorf tubes and frozen at −20° C. which until the HPLC analysis.

[2] = animal model of pancreatic pain; cited from earlier work
[3] = PK study in mice, single dermal administration; format: in vivo
Method: as §3
Computer fitting of the data from each experimental group was then performed by NCOMP version 3.1 program (P. B. Laub et al., Journal of Pharmaceutical Sciences, 1996, 85(4):393-395). Values for area under the plasma concentration-time profile, T1/2, Tmax, Cmax, etc. were calculated by conventional formulas previously described (Gibaldi et al., Pharmacokinetics, 1982, Marcel Dekker, Inc., New York).

[4] = tested on: transplanted psoriatic plaques; conditions: 2 weeks of therapy, double-blinded, placebo-controlled; cited from earlier work
[5] = male, Balb/c, mouse, topical or ocular, 10 umol/kg, single dermal, plasma

Work on `COC(=O)[C@]1(O)C[C@@H]2O[C@@]1(C)n1c3ccccc3c3c4c(c5c6ccccc6n2c5c31)C(=O)NC4` [Compound K-252a, K-252a] yielded an inhibition at 0.2 µM (JAK3) greater than 90%, an inhibition at 0.2 µM (TrkB) greater than 90% and an inhibition at 0.2 µM (AurA) greater than 90%. For the same compound, the inhibition at 0.2 µM (FGR) was 80 to 90%, the inhibition at 0.2 µM (CHK2) was greater than 90% and the inhibition at 0.2 µM (TrkC) was greater than 90%. It also gave an inhibition at 0.2 µM (BLK) of 80 to 90%, an inhibition at 0.2 µM (FLT3) greater than 90% and an inhibition at 0.2 µM (RET) greater than 90%. For the same compound, the inhibition at 0.2 µM (CHK1) was greater than 90%, the inhibition at 0.2 µM (CaMK2a) was 80 to 90% and the inhibition at 0.2 µM (KIT) was 80 to 90%. The inhibition at 0.2 µM (JAK1) was 80 to 90%, the inhibition at 0.2 µM (TYK2) was greater than 90% and the inhibition at 0.2 µM (JNK1) was greater than 90%. For the same compound, the inhibition at 0.2 µM (PDGFRα) was greater than 90%, the inhibition at 0.2 µM (PDGFRβ) was greater than 90% and the inhibition at 0.2 µM (TNK1) was greater than 90%. It also gave an inhibition at 0.2 µM (JAK2) greater than 90%, an inhibition at 0.2 µM (MER) of 80 to 90% and an inhibition at 0.2 µM (MET) of 80 to 90%. For the same compound, the inhibition at 0.2 µM (JNK2) was greater than 90%, the concentration at 3 h ([1]; male, Balb/c, mouse, plasma, topical, 1.03 mg/kg) was 110 nM and the concentration at 3 h ([1]; read-out: Mean Plasma Concentration) was 110.19 nM. For the same compound, the hypersensitivity [2] was “attenuates hypersensitivity”, the half-life ([3]; male, Balb/c, mouse, plasma, topical or ocular, 5.075 mg/kg, single dermal administration, read-out: half-life) was 1.05 h and the concentration at 3 h ([3]; male, Balb/c, mouse, plasma, topical, single dermal administration at same dosage (2 μmol/kg) and time point (3 hours), value±95% CI) was 72.9 nM. The half-life ([3]; male, Balb/c, mouse, topical or ocular, 10 umol/kg, single dermal, 10 μmol/kg, plasma, read-out: Terminal T1/2) was 1.05 h, the AUC(0-inf) [3, 5] was 4.75 µM·h and the Cmax [3, 5] was 908 nM. For the same compound, the Tmax [3, 5] was 3 h, the “time detectable in plasma after administration” value ([3]; single dermal administration) was no less than 9 h and the psoriasis improvement [4] was “significantly improved”.
